Assay results as given in patent publication US20020127539A1, “Assays for identifying receptors having alterations in signaling” (priority 2000, published 2002).

How the values were obtained:
rat mu opioid receptor = assay: CRE-Luc luciferase reporter assay with forskolin stimulation; assay type: cell-based; settings: FIG. 3, CRE-Luc
Source text: Similarly, a constitutively active rat mu opioid receptor was identified using a reporter construct sensitive to Gαi coupling (see FIG. 3). The response element employed in this assay was the cAMP-response element (CRE), which is sensitive to Gαi mediated changes in intracellular levels of cAMP. Signaling through the rat mu opioid receptor via Gαi inhibits adenylate cyclase, causing a decrease in intracellular cAMP. Therefore, an increase in rat mu opioid receptor signaling induces a decrease in CRE mediated reporter activity.
Prior to the present invention, Gαi-mediated decreases in intracellular cAMP were measured by (1) stimulating cells with forskolin, which causes receptor-independent activation of adenylate cyclase and generates an intracellular pool of cAMP; (2) stimulating the cells with ligand; and (3) measuring the ligand-induced, receptor-dependent Gαi-mediated decrease in the intracellular cAMP pool (e.g., using a radioimmunoassay (e.g., New England Nuclear, Boston, Mass.)). […] The basal (and ligand-induced) level of receptor activity was then measured using a standard luciferase assay (see FIG. 3). Coexpression of the receptor of interest with a luciferase reporter gene construct allows one to measure light emission as a readout for basal signaling.

MC-4 receptor = molecular target: T1, MC-4 receptor (Homo sapiens, UniProt P32245, D146M); assay: SMS-Luc luciferase reporter assay in HEK293 cells; assay type: cell-based; settings: FIG. 10
T1 construct: expressed in transfected cells; host or cells: HEK293
Method: Briefly, HEK293 cells were cotransfected, as described above, with an expression vector encoding either the wild-type MC-4 receptor or the Asp146Met mutant MC-4 receptor and the reporter construct, SMS-Luc. As a negative control, cells were transfected with SMS-Luc and pcDNA1. Basal and ligand (αMHS) induced activity of the negative control, the wild-type MC-4 receptor, and the Asp146Met mutant MC-4 receptor were measured using the luciferase assay described above.

T1 sequence (P32245 whole entry D146M): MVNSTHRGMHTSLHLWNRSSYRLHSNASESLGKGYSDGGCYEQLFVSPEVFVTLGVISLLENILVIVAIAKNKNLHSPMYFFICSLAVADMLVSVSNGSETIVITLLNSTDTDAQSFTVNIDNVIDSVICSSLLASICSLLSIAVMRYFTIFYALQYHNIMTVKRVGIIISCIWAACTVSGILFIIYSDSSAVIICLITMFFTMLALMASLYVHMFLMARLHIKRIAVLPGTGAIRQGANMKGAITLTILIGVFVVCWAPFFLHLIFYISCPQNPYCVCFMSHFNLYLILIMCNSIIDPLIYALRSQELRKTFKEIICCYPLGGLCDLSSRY

basal level activity compared to wild-type MC-4 receptor (MC-4 receptor) | Compound | effect of agonist stimulation on forskolin induced activity (rat mu opioid receptor)
 | C[C@@H](NC(=O)[C@@H](N)Cc1ccc(O)cc1)C(=O)NCC(=O)N(C)[C@@H](Cc1ccccc1)C(=O)NCCO [DAMGO, [D-Ala^2-MePhe^4, Gly-ol^5]enkephalin], reference compound] | decrease in forskolin induced activity
higher basal level activity | Asp146Met mutant MC-4 receptor: melanocortin-4 receptor with Asp146Met substitution in the DRY motif | 
